Conditions: Liquid, Pycnometric method

CCCCCCCCCCCCCCCCCC [octadecane]
Conditions | specific volume [m3/kg]
299.25 K | 0.00129
301.35 K | 0.001292
303.35 K | 0.001295
305.45 K | 0.001295
307.55 K | 0.001298
309.55 K | 0.001301
311.65 K | 0.001301
313.65 K | 0.001304
315.75 K | 0.001308
317.75 K | 0.001311
318.65 K | 0.001318
319.85 K | 0.001317
320.65 K | 0.001319
323.55 K | 0.001323
325.45 K | 0.001324
328.35 K | 0.00133
330.35 K | 0.001331
333.25 K | 0.001335
335.15 K | 0.001337
338.05 K | 0.001341
341.05 K | 0.001345
342.95 K | 0.001346
345.85 K | 0.00135
347.85 K | 0.001354
350.75 K | 0.001357
352.65 K | 0.00136
355.55 K | 0.001363
357.55 K | 0.001364
360.45 K | 0.001368
362.35 K | 0.001372
365.25 K | 0.001375
367.25 K | 0.001377
370.15 K | 0.001382
372.05 K | 0.001385
374.95 K | 0.001388
376.95 K | 0.001391
379.85 K | 0.001395
381.75 K | 0.001398
384.75 K | 0.001402
386.65 K | 0.001404
389.55 K | 0.001409
391.55 K | 0.001411
394.45 K | 0.001416
396.35 K | 0.001419
399.25 K | 0.001423
401.25 K | 0.001425
404.15 K | 0.001429
406.05 K | 0.001433
408.95 K | 0.001437
410.95 K | 0.00144
413.85 K | 0.001444
415.75 K | 0.001448
418.65 K | 0.001451
420.65 K | 0.001455
423.55 K | 0.001459
425.45 K | 0.001456
428.45 K | 0.001464
430.35 K | 0.001464
433.25 K | 0.001474
435.25 K | 0.001471
438.15 K | 0.001482
440.05 K | 0.001478
442.95 K | 0.001488
444.95 K | 0.001485
447.85 K | 0.001496
449.75 K | 0.001498
452.65 K | 0.001502
454.65 K | 0.001506
457.55 K | 0.001512
459.45 K | 0.001513
462.45 K | 0.00152
464.35 K | 0.001522
467.25 K | 0.00153
469.15 K | 0.001528
472.15 K | 0.001538
474.05 K | 0.001535
476.95 K | 0.001546
478.95 K | 0.001545
481.85 K | 0.001557
483.75 K | 0.001554
486.65 K | 0.001564
488.65 K | 0.001562
491.55 K | 0.001573
493.45 K | 0.001571
496.35 K | 0.001577
498.35 K | 0.001582
500.25 K | 0.001587
503.15 K | 0.001592
505.15 K | 0.001595
508.05 K | 0.001602
510.95 K | 0.001609
512.95 K | 0.00161
515.85 K | 0.001619
518.75 K | 0.001623
520.65 K | 0.001628
523.55 K | 0.001634
525.55 K | 0.001639
527.45 K | 0.001644
530.35 K | 0.001649
533.25 K | 0.001657
535.25 K | 0.001659
538.15 K | 0.001666
541.05 K | 0.001675
543.05 K | 0.001677
545.95 K | 0.001685
548.85 K | 0.001691
550.75 K | 0.001697
553.65 K | 0.001704
555.65 K | 0.001706
558.55 K | 0.001714
560.45 K | 0.00172
563.45 K | 0.00173
566.35 K | 0.001737
568.25 K | 0.001741
